From patent publication US9867786B2, “Stabilized compositions containing alkaline labile drugs” (AUXILIUM US HOLDINGS, LLC, priority 2006, dated 2018)

Test: Determination of drug stability: testosterone impurities/degradants in hot-melt extruded composition by HPLC
Format: physicochemical
Method: Testosterone and any other ingredients were added to the wet granulated excipient mixture prepared according to Example 1. The blend was extruded as a monolayer film using a having a barrel temperature of 135° C. The moisture content of the blend prior to extrusion was 3.1%. The HME composition is then analyzed by HPLC according to Example 4 to determine the amount of degradants present.
Twenty doses were sampled from a HME composition at the beginning, middle and end of the extrusion run a formulation. Composites of 10 doses were analyzed in duplicate for impurities by HPLC at each time point. The weight percent for each degradant was determined. Specific degradants analyzed include: 6B-Hydroxy-testosterone, 4-Androsten-16-alpha-ol-3,17-dione, Epi-Testosterone and unidentified degradants. The HPLC method employed will vary according to the drug included in the HME composition. Such methods are found in HPLC in the Pharmaceutical Industry (edited by Godwin W. Fong, Stanley K. Lam, New York: M. Dekker, 1991) or HPLC Methods for Pharmaceutical Analysis (by George Lunn and Norman R. Schmuff. New York: John Wiley & Sons, 1997), the disclosures of which are hereby incorporated by reference.

[1] = HME composition extruded at 135 ° C.
[2] = HME composition extruded at 145 ° C.
[3] = HME composition, granulation fluid Aqueous Ethanol
[4] = HME composition, granulation fluid Water

## C[C@]12CC[C@H]3[C@@H](CCC4=CC(=O)CC[C@@]43C)[C@@H]1CC[C@@H]2O [testosterone]
HME composition (PolyOx, Poloxamer wet granulated with water, Carbopol) extruded at 135 ° C.
  Total Unknown Impurities (%): 0.1%
HME composition (PolyOx, Poloxamer wet granulated with water, Carbopol) extruded at 145 ° C.
  Total Unknown Impurities (%): 0.4%
[1]
  4-Androsten-16-alpha-ol-3,17-dione (%): ND (ND denotes below the limit of quantitation using the HPLC method detailed herein. In this case, ND means less than 0.1% by wt.)
  6B-Hydroxy-testosterone (%): ND (ND denotes below the limit of quantitation using the HPLC method detailed herein. In this case, ND means less than 0.1% by wt.)
  Epi-Testosterone (%): ND (ND denotes below the limit of quantitation using the HPLC method detailed herein. In this case, ND means less than 0.1% by wt.)
[2]
  4-Androsten-16-alpha-ol-3,17-dione (%): ND (ND denotes below the limit of quantitation using the HPLC method detailed herein. In this case, ND means less than 0.1% by wt.)
  6B-Hydroxy-testosterone (%): 0.15%
  Epi-Testosterone (%): ND (ND denotes below the limit of quantitation using the HPLC method detailed herein. In this case, ND means less than 0.1% by wt.)
[3]
  4-Androsten-16-alpha-ol-3,17-dione (%): 0.00-0.20%
  6B-Hydroxy-testosterone (%): 0.00-0.20%
  Epi-Testosterone (%): 0.00-0.50%
HME composition, granulation fluid Aqueous Ethanol (50:50 water/ethanol)
  Total Unknown Impurities (%): 0.00-0.75%
[4]
  4-Androsten-16-alpha-ol-3,17-dione (%): 0.10-0.50%
  6B-Hydroxy-testosterone (%): 0.10-0.50%
  Epi-Testosterone (%): 0.00-0.50%
  Total Unknown Impurities (%): 0.50-1.00%
